Measurements reported in publication PMC9403976, “Elucidating the path to Plasmodium prolyl-tRNA synthetase inhibitors that overcome halofuginone resistance” (Nature Communications, 2022).
Where “and” joins values, the source holds several entries; their conditions need not be identical. Equal values may be shown once. Read-outs that look alike come from different tables or passages of the source.

How the values were obtained:
P. falciparum Dd2-2D4 = test: P. falciparum asexual blood stage (ABS) growth assay, SYBR Green, 72 h, wild-type parasites; format: cell-based, Plasmodium falciparum; settings: Plasmodium falciparum, DD2; SI Fig 16b; values on -log scale; read-out: ABS - Dd2-2D4 (converted)
PfcProRS = target: T1, PfcProRS (Plasmodium falciparum, UniProt Q8I5R7); format: binding; settings: for dose-response signal (normalized), SI Fig 8: single replicates
T1 construct: made in house; host or cells: E. coli SoluBL-21

HsProRS = HsProRS (Homo sapiens, UniProt P07814); test: TR-FRET ligand displacement assay with tracer MAT379 (CoraFluor-1-Halo and anti-His6 antibody formats); format: binding; parameters: made in house; host or cells: E. coli SoluBL-21; settings: for TR-FRET dose-response, normalized signal (SI Fig 11): individual replicates
Chain of HsProRS (P07814 996-1512): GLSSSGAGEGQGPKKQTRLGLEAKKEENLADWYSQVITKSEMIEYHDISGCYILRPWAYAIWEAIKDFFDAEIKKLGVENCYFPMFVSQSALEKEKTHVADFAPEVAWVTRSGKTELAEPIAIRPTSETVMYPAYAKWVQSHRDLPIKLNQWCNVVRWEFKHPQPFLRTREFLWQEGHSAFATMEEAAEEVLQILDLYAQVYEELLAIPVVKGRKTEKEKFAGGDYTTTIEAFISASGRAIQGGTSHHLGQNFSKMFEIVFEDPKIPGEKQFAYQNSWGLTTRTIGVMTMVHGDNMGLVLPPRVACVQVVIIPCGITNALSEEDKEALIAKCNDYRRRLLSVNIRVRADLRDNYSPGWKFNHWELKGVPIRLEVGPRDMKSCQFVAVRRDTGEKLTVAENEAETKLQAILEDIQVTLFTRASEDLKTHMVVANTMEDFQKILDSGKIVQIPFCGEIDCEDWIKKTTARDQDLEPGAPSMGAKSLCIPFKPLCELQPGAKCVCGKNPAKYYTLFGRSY

T1 sequence (Q8I5R7 249-746): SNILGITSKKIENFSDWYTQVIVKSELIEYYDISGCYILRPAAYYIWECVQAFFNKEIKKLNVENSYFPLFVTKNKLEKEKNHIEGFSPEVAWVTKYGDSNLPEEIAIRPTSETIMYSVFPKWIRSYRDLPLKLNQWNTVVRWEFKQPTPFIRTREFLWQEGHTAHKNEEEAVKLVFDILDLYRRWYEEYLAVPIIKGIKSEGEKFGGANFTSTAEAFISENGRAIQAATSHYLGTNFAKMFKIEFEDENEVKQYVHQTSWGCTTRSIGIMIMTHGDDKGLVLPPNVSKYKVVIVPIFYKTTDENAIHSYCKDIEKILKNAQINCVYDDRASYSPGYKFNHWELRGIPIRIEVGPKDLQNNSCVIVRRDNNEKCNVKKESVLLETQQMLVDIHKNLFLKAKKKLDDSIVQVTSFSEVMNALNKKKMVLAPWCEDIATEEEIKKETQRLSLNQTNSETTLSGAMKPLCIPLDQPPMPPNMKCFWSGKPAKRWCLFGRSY

Structure (SMILES): CC(C)(C)OC(=O)NCC1CCN(C(=O)Nc2nccnc2C(=O)NC2Cc3ccccc3C2)CC1 [compound 9]
- EC50 (P. falciparum Dd2-2D4): 6.58 µM
- dose-response signal (normalized), SI Fig 8 (PfcProRS; Log[inhibitor] (M) -5.000): 8.25E-02 and 7.54E-02 and 9.29E-02
- dose-response signal (normalized), SI Fig 8 (PfcProRS; Log[inhibitor] (M) -5.301): 2.45E-01 and 1.32E-01 and 2.09E-01
- dose-response signal (normalized), SI Fig 8 (PfcProRS; Log[inhibitor] (M) -5.601): 4.06E-01 and 4.09E-01 and 3.31E-01
- dose-response signal (normalized), SI Fig 8 (PfcProRS; Log[inhibitor] (M) -5.904): 5.21E-01 and 6.14E-01 and 5.87E-01
- dose-response signal (normalized), SI Fig 8 (PfcProRS; Log[inhibitor] (M) -6.208): 7.48E-01 and 8.25E-01 and 7.95E-01
- dose-response signal (normalized), SI Fig 8 (PfcProRS; Log[inhibitor] (M) -6.509): 8.42E-01 and 8.68E-01 and 7.28E-01
- dose-response signal (normalized), SI Fig 8 (PfcProRS; Log[inhibitor] (M) -6.796): 9.11E-01 and 1.04E+00 and 1.02E+00
- dose-response signal (normalized), SI Fig 8 (PfcProRS; Log[inhibitor] (M) -7.108): 9.58E-01 and 9.39E-01 and 1.04E+00
- dose-response signal (normalized), SI Fig 8 (PfcProRS; Log[inhibitor] (M) -7.409): 9.93E-01 and 1.06E+00 (2×)
- dose-response signal (normalized), SI Fig 8 (PfcProRS; Log[inhibitor] (M) -7.710): 1.14E+00 and 1.04E+00 and 9.88E-01
- dose-response signal (normalized), SI Fig 8 (PfcProRS; Log[inhibitor] (M) -8.000): 9.88E-01 and 1.04E+00 and 1.02E+00
- dose-response signal (normalized), SI Fig 8 (PfcProRS; Log[inhibitor] (M) -8.301): 9.59E-01 and 9.72E-01 and 9.39E-01
- dose-response signal (normalized), SI Fig 8 (PfcProRS; Log[inhibitor] (M) -8.602): 9.15E-01 and 9.90E-01 and 9.70E-01
- dose-response signal (normalized), SI Fig 8 (PfcProRS; Log[inhibitor] (M) -9.000): 9.95E-01 and 1.01E+00 and 9.84E-01
- dose-response signal (normalized), SI Fig 8 (PfcProRS; Log[inhibitor] (M) -9.301): 1.06E+00 and 9.86E-01 and 9.57E-01
- PfcProRS -- best Kd (PfcProRS; SI Fig 16a, values on -log scale): 6.452
- HsProRS % signal at 10 μM, + 100 μM proline (HsProRS; + 100 μM proline, 10 μM): 51.7%
- Kd (HsProRS; HsProRS (KD [nM]) mean, no added proline/ATP (-)): 2510 nM
- normalized TR-FRET ligand displacement signal, dose-response replicates (SI Fig 6) (HsProRS; Log[inhibitor] (M) -5.000): 3.85E-02 and 1.39E-01 and 8.67E-02
- TR-FRET dose-response, normalized signal (SI Fig 11) (HsProRS; Log[inhibitor] (M) -5.000): 2.52E-01 and 2.44E-01 and 2.56E-01
- normalized TR-FRET ligand displacement signal, dose-response replicates (SI Fig 6) (HsProRS; Log[inhibitor] (M) -5.301): 2.62E-01 and 9.25E-02 and 2.11E-01
- TR-FRET dose-response, normalized signal (SI Fig 11) (HsProRS; Log[inhibitor] (M) -5.301): 3.68E-01 and 3.83E-01 and 3.86E-01
- normalized TR-FRET ligand displacement signal, dose-response replicates (SI Fig 6) (HsProRS; Log[inhibitor] (M) -5.601): 2.47E-01 and 2.95E-01 and 3.23E-01
- TR-FRET dose-response, normalized signal (SI Fig 11) (HsProRS; Log[inhibitor] (M) -5.601): 5.41E-01 and 5.42E-01 and 6.20E-01
- normalized TR-FRET ligand displacement signal, dose-response replicates (SI Fig 6) (HsProRS; Log[inhibitor] (M) -5.904): 5.08E-01 and 5.80E-01 and 5.13E-01
- TR-FRET dose-response, normalized signal (SI Fig 11) (HsProRS; Log[inhibitor] (M) -5.904): 6.85E-01 and 6.21E-01 and 6.49E-01
- normalized TR-FRET ligand displacement signal, dose-response replicates (SI Fig 6) (HsProRS; Log[inhibitor] (M) -6.208): 7.02E-01 and 7.67E-01 and 6.77E-01
- TR-FRET dose-response, normalized signal (SI Fig 11) (HsProRS; Log[inhibitor] (M) -6.208): 7.39E-01 and 7.74E-01 and 7.75E-01
- normalized TR-FRET ligand displacement signal, dose-response replicates (SI Fig 6) (HsProRS; Log[inhibitor] (M) -6.509): 8.58E-01 and 7.92E-01 and 7.62E-01
- TR-FRET dose-response, normalized signal (SI Fig 11) (HsProRS; Log[inhibitor] (M) -6.509): 8.32E-01 and 8.29E-01 and 7.90E-01
- normalized TR-FRET ligand displacement signal, dose-response replicates (SI Fig 6) (HsProRS; Log[inhibitor] (M) -6.796): 9.92E-01 and 1.07E+00 and 1.01E+00
- TR-FRET dose-response, normalized signal (SI Fig 11) (HsProRS; Log[inhibitor] (M) -6.796): 8.79E-01 and 8.03E-01 and 8.17E-01
- normalized TR-FRET ligand displacement signal, dose-response replicates (SI Fig 6) (HsProRS; Log[inhibitor] (M) -7.108): 8.83E-01 and 1.03E+00 and 1.07E+00
- TR-FRET dose-response, normalized signal (SI Fig 11) (HsProRS; Log[inhibitor] (M) -7.108): 8.15E-01 and 8.66E-01 and 8.33E-01
- normalized TR-FRET ligand displacement signal, dose-response replicates (SI Fig 6) (HsProRS; Log[inhibitor] (M) -7.409): 9.70E-01 and 9.46E-01 and 9.42E-01
- TR-FRET dose-response, normalized signal (SI Fig 11) (HsProRS; Log[inhibitor] (M) -7.409): 8.81E-01 and 9.27E-01 and 8.52E-01
- normalized TR-FRET ligand displacement signal, dose-response replicates (SI Fig 6) (HsProRS; Log[inhibitor] (M) -7.710): 9.63E-01 and 9.72E-01 and 1.02E+00
- TR-FRET dose-response, normalized signal (SI Fig 11) (HsProRS; Log[inhibitor] (M) -7.710): 8.59E-01 and 8.71E-01 and 8.69E-01
- normalized TR-FRET ligand displacement signal, dose-response replicates (SI Fig 6) (HsProRS; Log[inhibitor] (M) -8.000): 9.31E-01 and 9.57E-01 and 9.75E-01
- TR-FRET dose-response, normalized signal (SI Fig 11) (HsProRS; Log[inhibitor] (M) -8.000): 9.54E-01 and 9.12E-01 and 8.65E-01
- normalized TR-FRET ligand displacement signal, dose-response replicates (SI Fig 6) (HsProRS; Log[inhibitor] (M) -8.301): 9.41E-01 and 8.96E-01 and 8.89E-01
- TR-FRET dose-response, normalized signal (SI Fig 11) (HsProRS; Log[inhibitor] (M) -8.301): 9.04E-01 and 9.25E-01 and 8.91E-01
- normalized TR-FRET ligand displacement signal, dose-response replicates (SI Fig 6) (HsProRS; Log[inhibitor] (M) -8.602): 9.58E-01 and 9.45E-01 and 9.24E-01
- TR-FRET dose-response, normalized signal (SI Fig 11) (HsProRS; Log[inhibitor] (M) -8.602): 9.14E-01 and 8.78E-01 and 9.05E-01
- normalized TR-FRET ligand displacement signal, dose-response replicates (SI Fig 6) (HsProRS; Log[inhibitor] (M) -9.000): 1.05E+00 and 8.77E-01 and 8.55E-01
- TR-FRET dose-response, normalized signal (SI Fig 11) (HsProRS; Log[inhibitor] (M) -9.000): 8.65E-01 and 8.66E-01 and 9.64E-01
- normalized TR-FRET ligand displacement signal, dose-response replicates (SI Fig 6) (HsProRS; Log[inhibitor] (M) -9.301): 8.65E-01 and 9.01E-01 and 8.87E-01
- TR-FRET dose-response, normalized signal (SI Fig 11) (HsProRS; Log[inhibitor] (M) -9.301): 9.03E-01 and 9.18E-01 and 8.96E-01
